Laboratory results as given in patent US8012975B2, “Antitumoral analogs of ET-743” (Pharma Mar, S.A., priority 2000, dated 2011).
Read-outs that look alike come from different tables or passages of the source.

Tests used:
[1] = tested on: P-388; assay: Cytotoxic activity IC50, P-388; details: Mus musculus, P388, read-out: CYTOTOXIC ACTIVITIY IC50 (μM) P-388
[2] = tested on: HT-29; assay: Cytotoxic activity IC50, HT-29; details: Homo sapiens, HT-29, read-out: CYTOTOXIC ACTIVITIY IC50 (μM) HT-29
[3] = tested on: MEL-28; assay: Cytotoxic activity IC50, MEL-28; details: Homo sapiens, SK-MEL-28, read-out: CYTOTOXIC ACTIVITIY IC50 (μM) MEL-28
[4] = Cytotoxic activity IC50, CV-1; details: African green monkey, CV-1 cells
[5] = tested on: A-549; assay: Cytotoxic activity IC50, A-549; details: Homo sapiens, A549, read-out: CYTOTOXIC ACTIVITIY IC50 (μM) A-549
[6] = tested on: DU-145; assay: Cytotoxic activity IC50, DU-145; details: Homo sapiens, DU-145, read-out: CYTOTOXIC ACTIVITIY IC50 (μM) DU-145
[7] = background statement, no test described; cited from earlier work
[8] = tested on: H9; details: human
[9] = tested on: HL60; details: human
[10] = tested on: MC116; details: human
[11] = tested on: RAMOS; details: human
[12] = tested on: Molt 3; details: human
[13] = tested on: Hut 78; details: human
[14] = tested on: MEL-28; assay: Cytotoxic activity (M) panel, Melanoma Mel-28; details: Homo sapiens, SK-MEL-28, read-out: CYTOTOXIC ACTIVITY (M) Mel-28
[15] = tested on: 786-O; assay: Cytotoxic activity (M) panel, Renal 786-O; details: Homo sapiens, 786-0, read-out: CYTOTOXIC ACTIVITY (M) 786-O
[16] = tested on: MX-1
[17] = tested on: FADU; assay: Cytotoxic activity (M) panel, Pharnynx FADU; details: Homo sapiens, read-out: CYTOTOXIC ACTIVITY (M) FADU
[18] = tested on: CHSA; assay: Cytotoxic activity (M) panel, Chondrosarcoma CHSA; details: read-out: CYTOTOXIC ACTIVITY (M) CHSA
[19] = tested on: SK-OV-3; assay: Cytotoxic activity (M) panel, Ovary SK-OV-3; details: Homo sapiens, SK-OV-3, read-out: CYTOTOXIC ACTIVITY (M) SK-OV-3
[20] = tested on: Y-79
[21] = tested on: NCI-H187
[22] = tested on: Hs746t; assay: Cytotoxic activity (M) panel, Gastric Hs746t; details: Homo sapiens, read-out: CYTOTOXIC ACTIVITY (M) Hs746t
[23] = tested on: 5637; assay: Cytotoxic activity (M) panel, Bladder 5637; details: read-out: CYTOTOXIC ACTIVITY (M) 5637
[24] = tested on: SW-694; assay: Cytotoxic activity (M) panel, Fibrosarcoma SW-694; details: read-out: CYTOTOXIC ACTIVITY (M) SW-694
[25] = tested on: OSA-FH; assay: Cytotoxic activity (M) panel, Osteosarcoma OSA-FH; details: read-out: CYTOTOXIC ACTIVITY (M) OSA-FH
[26] = tested on: SK-HEP-1; assay: Cytotoxic activity (M) panel, Liver SK-HEP-1; details: Homo sapiens, SK-HEP1, read-out: CYTOTOXIC ACTIVITY (M) SK-HEP-1
[27] = tested on: HT-29; assay: Cytotoxic activity (M) panel, Colon HT-29; details: Homo sapiens, HT-29, read-out: CYTOTOXIC ACTIVITY (M) HT-29
[28] = tested on: DU-145; assay: Cytotoxic activity (M) panel, Prostate DU-145; details: Homo sapiens, DU-145, read-out: CYTOTOXIC ACTIVITY (M) DU-145
[29] = tested on: LNCAP; assay: Cytotoxic activity (M) panel, Prostate LNCAP; details: Homo sapiens, read-out: CYTOTOXIC ACTIVITY (M) LNCAP
[30] = tested on: A549
[31] = tested on: PANC-1; assay: Cytotoxic activity (M) panel, Pancreas PANC-1; details: Homo sapiens, PANC-1, read-out: CYTOTOXIC ACTIVITY (M) PANC-1
[32] = tested on: MX-1; assay: Cytotoxic activity (M) panel, Breast MX-1; details: Homo sapiens, MX1, read-out: CYTOTOXIC ACTIVITY (M) MX-1
[33] = tested on: NCI-H187; assay: Cytotoxic activity (M) panel, SCL NCI-H187; details: Homo sapiens, NCI-H187, read-out: CYTOTOXIC ACTIVITY (M) NCI-H187
[34] = tested on: PC3
[35] = tested on: Y-79; assay: Cytotoxic activity (M) panel, Retinoblastoma Y-79; details: Homo sapiens, Y79, read-out: CYTOTOXIC ACTIVITY (M) Y-79
[36] = tested on: OSA-FH
[37] = tested on: PC3; assay: Cytotoxic activity (M) panel, Prostate PC3; details: Homo sapiens, PC-3, read-out: CYTOTOXIC ACTIVITY (M) PC3
[38] = tested on: 5637
[39] = tested on: A549; assay: Cytotoxic activity (M) panel, NSCL A549; details: Homo sapiens, A549, read-out: CYTOTOXIC ACTIVITY (M) A549
[40] = tested on: SK-HEP-1

| SMILES | IC50 [14] [M] | IC50 [15] [M] | IC50 [17] [M] | IC50 [18] [M] | IC50 [19] [M] | IC50 [22] [M] | IC50 [23] [M] | IC50 [25] [M] | IC50 [26] [M] | IC50 [27] [M] | IC50 [29] [M] | IC50 [31] [M] | IC50 [32] [M] | IC50 [33] [M] | IC50 [35] [M] | also measured |
| --- | --- | --- | --- | --- | --- | --- | --- | --- | --- | --- | --- | --- | --- | --- | --- | --- |
| COCOc1c(OC)c(C)cc2c1[C@@H]1C3Cc4c(OC(=O)C(F)(F)C(F)(F)C(F)(F)F)c(C)c5c(c4[C@H](CNC(=O)CCc4ccccc4)N3[C@@H](C#N)[C@H](C2)N1C)OCO5 (some centres unmarked) | – | – | – | – | – | – | – | – | – | – | – | – | – | – | – | IC50 [1]: 0.5 µM; IC50 [2]: 0.5 µM; IC50 [3]: 0.5 µM; IC50 [4]: 500 nM; IC50 [5]: 0.5 µM; IC50 [6]: 0.5 µM |
| COC1=C(C)C(=O)C2=C(C1=O)[C@@H]1[C@@H]3Cc4c(OC(=O)CO)c(C)c(OC)c(O)c4[C@H](CNC(=O)C(C)=O)N3[C@@H](C#N)[C@H](C2)N1C [Saframycin R] | – | – | – | – | – | – | – | – | – | – | – | – | – | – | – | toxicity [7]: moderate toxicity |
| COc1c(C)cc2c(c1O)[C@@H]1C3Cc4c(OC(C)=O)c(C)c5c(c4[C@H](COC(=O)/C=C/c4ccccc4)N3[C@@H](O)[C@H](C2)N1C)OCO5 (some centres unmarked) [drawing 239] | – | – | – | – | – | – | – | – | – | – | – | – | – | – | – | IC50 [8]: 21.7 nM; IC50 [9]: 3.1 nM; IC50 [10]: 0.0527 nM; IC50 [11]: 1.86 nM; IC50 [12]: 0.0869 nM; IC50 [13]: 48.1 nM |
| COc1c(C)cc2c(c1O)[C@@H]1C3Cc4c(OC(C)=O)c(C)c5c(c4[C@H](COC(=O)/C=C/c4ccccc4)N3[C@@H](O)[C@H](C2)N1C)OCO5 (some centres unmarked) [drawing 234] | 5.89e-08 | 5.26e-12 | 2.46e-08 | 4.49e-08 | 7.78e-08 | 1.24e-09 | 1.71e-08 | 5.26e-07 | 1.94e-09 | 2.96e-07 | 6.83e-08 | 9.47e-09 | – | – | – | IC50 [16]: 0.000725 nM; IC50 [20]: 0.0778 pM; IC50 [21]: 0.0778 pM; IC50 [24]: 6.69e-06 M; IC50 [28]: 1.56e-06 M; CYTOTOXIC ACTIVITY (M) A549 [30]: 1.56 to 05 M |
| CCCC(=O)NC[C@H]1c2c(c(OC(C)=O)c(C)c3c2OCO3)CC2[C@H]3c4c(cc(C)c(OC)c4O)C[C@@H]([C@H](O)N21)N3C (some centres unmarked) [drawing 225] | 3.05e-08 | 6.55e-09 | 7.94e-09 | 1.73e-08 | 2.21e-07 | 2.97e-08 | 2.81e-09 | 8.56e-08 | 5.07e-09 | – | 5.39e-09 | 2.9e-09 | 2.5e-06 | 3.98e-11 | 3.14e-09 | CYTOTOXIC ACTIVITY (M) PC3 [34]: 1.46-08 M |
| COc1c(C)cc2c(c1O)[C@@H]1C3Cc4c(OC(C)=O)c(C)c5c(c4[C@H](CNC(=O)[C@H](C)NC(=O)Cc4ccccc4)N3[C@@H](O)[C@H](C2)N1C)OCO5 (some centres unmarked) [drawing 216] | 1.13e-09 | 2.9e-09 | 3.77e-08 | 2.25e-09 | – | 6.25e-09 | 7.85e-10 | – | 9.03e-10 | 1.2e-10 | – | 2.58e-09 | 2.85e-06 | 2.07e-12 | 1.31e-11 | CYTOTOXIC ACTIVITY (M) OSA-FH [36]: 1.35 to 08 M; IC50 [37]: 9.34e-09 M |
| COc1c(C)cc2c(c1O)[C@@H]1C3Cc4c(OC(C)=O)c(C)c5c(c4[C@H](CNC(=O)Cc4ccccc4)N3[C@@H](O)[C@H](C2)N1C)OCO5 (some centres unmarked) [drawing 217] | 4.48e-09 | 1e-08 | 1.14e-09 | 1.09e-08 | – | 1.37e-07 | – | 9.5e-09 | 9.5e-09 | – | – | 1.03e-08 | – | – | 7.78e-09 | CYTOTOXIC ACTIVITY (M) 5637 [38]: 3.18 to 09 M |
| COc1c(C)cc2c(c1O)[C@@H]1C3Cc4c(OC(C)=O)c(C)c5c(c4[C@H](COC(=O)/C=C/c4cccc(C(F)(F)F)c4)N3[C@@H](O)[C@H](C2)N1C)OCO5 (some centres unmarked) [drawing 233] | 1.76e-08 | 1.46e-08 | 4.59e-07 | 2.53e-08 | 7.03e-06 | 3.57e-08 | 1.14e-08 | 6.34e-08 | – | 4.08e-07 | 5.98e-07 | 1.03e-08 | 2.81e-08 | 8.02e-10 | 8.85e-10 | IC50 [24]: 3.38e-06 M; IC50 [37]: 7.88e-08 M; IC50 [39]: 2.81e-06 M; IC50 [28]: 7.03e-08 M; CYTOTOXIC ACTIVITY (M) SK-HEP-1 [40]: 1.63 to 08 M |
